Measurements reported in US9145391B2, “Bipyridylaminopyridines as Syk inhibitors” (Merck Sharp & Dohme Corp., priority 2011, dated 2015).

Columns and labels:
[1] = Hydrolysis assay: hydrolysis of prodrug to parent species in human liver S9; type: in vitro ADME; settings: human liver S9 1 mg protein/mL, prodrug 10 μM, 37° C., pH 7.4, 1 mM NADPH; for half-life at 10 μM: read-out: Half-life (min) of the conversion of the prodrug to the carboxylic acid
Procedure: Hydrolysis Assay: Analysis of Hydrolysis of Prodrug to Parent Species
The stability of 8 different prodrugs was investigated in human liver S9 microsomes. Incubations of prodrugs (10 μM) with liver S9 (1 mg protein/mL) were carried out at 37° C. in a phosphate buffer, pH 7.4, containing 1 mM NADPH. Control incubations contained BSA (1.1 mg/mL) instead of liver S9 microsomes. Aliquots were removed at 0, 5, 15, 30, 60 and 120 min, treated with 4 volumes of acetonitrile containing 2% formic acid and an internal standard, and centrifuged. The supernatants were analyzed by LC-MS/MS for prodrug disappearance and appearance of active drug. The half-life of the prodrug was calculated from the % prodrug remaining at different time points calculated from on the peak area ratio relative to t=0. The amount of active drug generated at the different time points was determined using a standard curve.

[2] = target: recombinant human GST-Syk (Homo sapiens (Human), UniProt P43405); assay: Homogeneous Time-Resolved Fluorescence (HTRF) assay for the recombinant human Syk enzyme; type: biochemical; settings: recombinant human GST-Syk 5 pM, ATP 25 μM, read-out: rhSyk IC50
Method in brief: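 Recombinant GST-hSyk fusion protein kinase activity was read by HTRF. Reactions were started with biotinylated substrate peptide at 250 nM final, Mg 5 mM final and ATP 25 μM final. Potency derived from inhibition of substrate phosphorylation.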

Structure (SMILES) | half-life at 10 μM [1] [min] | IC50 [2] [nM] | Half-life (min) of the conversion of the prodrug to the carboxylic acid [1] [min]
CCOC(=O)[C@H]1CC[C@H](C(C)(O)c2ccc(-c3cc(C)cc(Nc4cc(C(F)F)ccn4)n3)cn2)CC1 (single isomer, unassigned) [Example 17, Ethyl trans-4-[(1R or 1S)-1-(6-{[4-(difluoromethyl)pyridin-2-yl]amino}-4-methyl-2,3′-bipyridin-6′-yl)-1-hydroxyethyl]cyclohexanecarboxylate] | 5.6 | 18 | 
Cc1cc(Nc2cc(C(F)F)ccn2)nc(-c2ccc(C(C)(O)[C@H]3CC[C@H](C(=O)OCC(=O)N(C)C)CC3)nc2)c1 (single isomer, unassigned) [Example 19-18, 2-(dimethylamino)-2-oxoethyl trans-4-[(1R or 1S)-1-(6-{[4-(difluoromethyl)pyridin-2-yl]amino}-4-methyl-2,3′-bipyridin-6′-yl)-1-hydroxyethyl] cyclohexanecarboxylate] |  | 1.2 | 6.2
CC(=O)OCOC(=O)[C@H]1CC[C@H](C(C)(O)c2ccc(-c3cc(C)cc(Nc4cc(C(F)F)ccn4)n3)cn2)CC1 (single isomer, unassigned) [Example 21, (Acetyloxy)methyl trans-4-[(1R or 1S)-1-(6-{[4-(difluoromethyl)pyridin-2-yl]amino}-4-methyl-2,3′-bipyridin-6′-yl)-1-hydroxyethyl]cyclohexanecarboxylate] | 3.3 | 11 | 
Cc1cc(Nc2cc(C(F)(F)F)ccn2)nc(-c2ccc(NC3CCN(C(=O)Cc4n[nH]c5ccccc45)CC3)nc2)c1 [Example 4-8] |  | 7 | 
Cc1cc(Nc2cc(C(F)F)ccn2)nc(-c2ccc(C(C)(O)C3CCC(C(=O)O)C(C)C3)nc2)c1 (stereo not drawn) [Example 1-35] |  | < 0.5 | 
CC(O)(c1ccc(-c2cc(C3CC3)cc(Nc3cc(C(F)F)ccn3)n2)cn1)C1CCC(C(=O)O)CC1 (stereo not drawn) [Example 1-33] |  | < 0.5 | 
Cc1cc(Nc2cc(C(F)F)ccn2)nc(-c2ccc(C(C)(O)[C@H]3CC[C@H](C(=O)OCc4oc(=O)oc4C)CC3)nc2)c1 (single isomer, unassigned) [Example 19-21, (5-methyl-2-oxo-1,3-dioxol-4-yl)methyl trans-4-[(1R or 1S)-1-(6-{[4-(difluoromethyl)pyridin-2-yl]amino}-4-methyl-2,3′-bipyridin-6′-yl)-1-hydroxyethyl] cyclohexanecarboxylate] |  | 5.2 | 
Cc1cc(Nc2cc(C(F)(F)F)ccn2)nc(-c2ccc(C3(O)CCN(C(=O)c4ccc5cccnc5c4)CC3)nc2)c1 [Example 9-1] |  | 30 | 
Cc1cc(Nc2cc(C(F)(F)F)ccn2)nc(-c2ccc(NC3CCN(C(=O)CCN4CCCC4=O)CC3)nc2)c1 [Example 4-11] |  | 2 | 
Cc1cc(Nc2cc(C(F)(F)F)ccn2)nc(-c2ccc(NC3CCN(C(=O)c4cccc(C#N)c4)CC3)nc2)c1 [Example 4-85] |  | 7 | 
Cc1cc(Nc2cc(C(F)F)ccn2)nc(-c2ccc(C(C)(O)[C@H]3CC[C@H](CO)CC3)nc2)c1 (single isomer, unassigned) [Example 23, (1R or 1S)-1-(6-{[4-(difluoromethyl)pyridin-2-yl]amino}-4-methyl-2,3′-bipyridin-6′-yl)-1-[trans-4-(hydroxymethyl)cyclohexyl]ethanol] |  | 1 | 
Cc1cc(Nc2cc(C(F)(F)F)ccn2)nc(-c2ccnc(F)c2)c1 [Example 1-4] |  | 87 | 
Cc1cc(Nc2cc(C(F)(F)F)ccn2)nc(-c2ccc(NC3CCN(C(=O)Cc4ccccc4C(F)(F)F)CC3)nc2)c1 [Example 4-75] |  | 39 | 
COC(=O)C1CCC(C(=O)c2ccc(-c3cc(C)cc(Nc4cc(C(F)(F)F)ccn4)n3)cn2)CC1 (stereo not drawn) [Example 1-12] |  | 643 | 

Second part, the compound after the results:

half-life at 10 μM [1] [min] | IC50 [2] [nM] | Half-life (min) of the conversion of the prodrug to the carboxylic acid [1] [min] | Structure (SMILES)
4.6 | 8 |  | COC(=O)[C@H]1CC[C@H](C(C)(O)c2ccc(-c3cc(C)cc(Nc4cc(C(F)F)ccn4)n3)cn2)CC1 (single isomer, unassigned) [Example 22, Methyl trans-4-[(1R or 1S)-1-(6-{[4-(difluoromethyl)pyridin-2-yl]amino}-4-methyl-2,3′-bipyridin-6′-yl)-1-hydroxyethyl]cyclohexanecarboxylate]
 | 8.7 | 15 | Cc1cc(Nc2cc(C(F)F)ccn2)nc(-c2ccc(C(C)(O)[C@H]3CC[C@H](C(=O)OCCN4CCOCC4)CC3)nc2)c1 (single isomer, unassigned) [Example 19-19, 2-{morpholin-4-yl)ethyl trans-4-[(1R or 1S)-1-(6-{[4-(difluoromethyl)pyridin-2-yl]amino}-4-methyl-2,3′-bipyridin-6′-yl)-1-hydroxyethyl] cyclohexanecarboxylate]
 | 6.4 | 3.9 | COCCOC(=O)[C@H]1CC[C@H](C(C)(O)c2ccc(-c3cc(C)cc(Nc4cc(C(F)F)ccn4)n3)cn2)CC1 (single isomer, unassigned) [Example 19-15, 2-methoxyethyl trans-4-[(1R or 1S)-1-(6-{[4-(difluoromethyl)pyridin-2-yl]amino}-4-methyl-2,3′-bipyridin-6′-yl)-1-hydroxyethyl] cyclohexanecarboxylate]
 | 670 | 40 | CCCCCCCOC(=O)[C@H]1CC[C@H](C(C)(O)c2ccc(-c3cc(C)cc(Nc4cc(C(F)F)ccn4)n3)cn2)CC1 (single isomer, unassigned) [Example 19-10, heptyl trans-4-[(1R or 1S)-1-(6-{[4-(difluoromethyl)pyridin-2-yl]amino}-4-methyl-2,3′-bipyridin-6′-yl)-1-hydroxyethyl] cyclohexanecarboxylate]
3 | 14 |  | CCOC(=O)OCOC(=O)[C@H]1CC[C@H](C(C)(O)c2ccc(-c3cc(C)cc(Nc4cc(C(F)F)ccn4)n3)cn2)CC1 (single isomer, unassigned) [Example 20, [(Ethoxycarbonyl)oxy]methyl trans-4-[(1R or 1S)-1-(6-{[4-(difluoromethyl)pyridin-2-yl]amino}-4-methyl-2,3′-bipyridin-6′-yl)-1-hydroxyethyl]cyclohexanecarboxylate]
 | 3 |  | Cc1cc(Nc2cc(C(F)(F)F)ccn2)nc(-c2ccc(NC3CCN(C(=O)c4ccc(C(N)=O)cc4)CC3)nc2)c1 [Example 4-23]
 | 11 |  | Cc1cc(Nc2cc(C(F)(F)F)ccn2)nc(-c2ccc(NC3CCN(C(=O)Cc4c(C)[nH]c5ccccc45)CC3)nc2)c1 [Example 4-88]
 | 6 |  | Cc1cc(Nc2cc(C(F)(F)F)ccn2)nc(-c2ccc(NC3CCN(C(=O)c4ccc(O)cc4)CC3)nc2)c1 [Example 4-106]
 | 4 |  | Cc1cc(Nc2cc(C(F)(F)F)ccn2)nc(-c2ccc(NC3CCN(C(=O)c4ccncc4)CC3)nc2)c1 [Example 4-84]
 | 210 |  | Cc1cc(Nc2cc(C(F)F)ccn2)nc(-c2ccc(C(C)(O)[C@H]3CC[C@H](C(=O)OCC4CCCCC4)CC3)nc2)c1 (single isomer, unassigned) [Example 19-14, cyclohexylmethyl trans-4-[(1R or 1S)-1-(6-{[4-(difluoromethyl)pyridin-2-yl]amino}-4-methyl-2,3′-bipyridin-6′-yl)-1-hydroxyethyl] cyclohexanecarboxylate]
 | 15 |  | Cc1cc(Nc2cc(C(F)(F)F)ccn2)nc(-c2ccc(NC3CCN(C(=O)c4cccc(-c5cc[nH]n5)c4)CC3)nc2)c1 [Example 4-62]
 | 175 |  | Cc1cc(Nc2cc(C(F)(F)F)ccn2)nc(-c2ccc(NC3CCN(C(=O)Cc4ccc(Oc5ccccc5)cc4)CC3)nc2)c1 [Example 4-57]
 | 4 |  | Nc1cc(Nc2cc(C(F)(F)F)ccn2)nc(-c2ccc(NC3CCNC3=O)nc2)c1 (stereo not drawn) [Example 2, 3-[(4-Amino-6-{[4-(trifluoromethyl)pyridin-2-yl]amino}-2,3′-bipyridin-6′-yl)amino]pyrrolidin-2-one]
 | 11 |  | Cc1cc(Nc2cc(C(F)(F)F)ccn2)nc(-c2ccc(NC3CCN(C(=O)c4ccc5[nH]c(C)c(C)c5c4)CC3)nc2)c1 [Example 4-103]
 | 50 |  | Cc1cc(Nc2cc(C(F)F)ccn2)nc(-c2ccc(C(C)(O)[C@H]3CC[C@H](C(=O)OC(C)C)CC3)nc2)c1 (single isomer, unassigned) [Example 19-3, propan-2-yl trans-4-[(1R or 1S)-1-(6-{[4-(difluoromethyl)pyridin-2-yl]amino}-4-methyl-2,3′-bipyridin-6′-yl)-1-hydroxyethyl] cyclohexanecarboxylate]
 | 7 |  | CCC(C)OC(=O)[C@H]1CC[C@H](C(C)(O)c2ccc(-c3cc(C)cc(Nc4cc(C(F)F)ccn4)n3)cn2)CC1 (single isomer, unassigned) [Example 19-5, butan-2-yl trans-4-[(1R or 1S)-1-(6-{[4-(difluoromethyl)pyridin-2-yl]amino}-4-methyl-2,3′-bipyridin-6′-yl)-1-hydroxyethyl] cyclohexanecarboxylate]
 | 29 |  | Cc1cc(Nc2cc(C(F)(F)F)ccn2)nc(-c2ccc(NC3CCN(C(=O)c4cccc5c4C(=O)c4ccccc4-5)CC3)nc2)c1 [Example 4-43]
